Results reported in PMC10584170, “Machine learning-based phenotypic imaging to characterise the targetable biology of Plasmodium falciparum male gametocytes for the development of transmission-blocking antimalarials” (PLOS Pathogens, 2023).

Experiments:
[1] = system: P. falciparum female gametocytes; assay: P. falciparum Dual Gamete Formation Assay (PfDGFA), female readout (Pfs25-positive female gametes); format: cell-based, Plasmodium falciparum NF54; conditions: for Average inhibition female (%): average of replicates; for % inhibition female (individual replicates) R1: replicate R1; for % inhibition female (individual replicates) R3: replicate R3; for % inhibition female (individual replicates) R4: replicate R4
In short: (§1)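 Two sex-specific readouts come from one well: male exflagellation centres recorded by brightfield video right after activation, and female gametes scored by Cy3-anti-Pfs25 fluorescence after 24 h at 28°C.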

[2] = system: P. falciparum male gametocytes; assay: P. falciparum Dual Gamete Formation Assay (PfDGFA), male readout (exflagellation); format: cell-based, Plasmodium falciparum NF54; conditions: for Average inhibition male (%): average of replicates; for % inhibition male (individual replicates) R1: replicate R1; for % inhibition male (individual replicates) R3: replicate R3; for % inhibition male (individual replicates) R4: replicate R4; for Activity: hit = >50% inhibition in male or female readout in at least 3 replicates, 0 = no class assigned
In short: as §1

[3] = PfDGFA at 2µM, 24h preincubation with gametocytes
[4] = number of replicates with >50% inhibition in the female readout, 2µM
[5] = number of replicates with >50% inhibition in the male readout, 2µM
[6] = 2µM, 24h preincubation with gametocytes prior to induction of gametogenesis
[7] = 2µM, 24h preincubation, hits selected on >50% inhibition in the female readout across replicates
[8] = 2µM, 24h preincubation, hits selected on >50% inhibition in the male readout across replicates
[9] = PfDGFA at 2µM, 24h preincubation
[10] = 2µM, 24h preincubation, number of replicates with >50% inhibition in the female readout
[11] = 2µM, 24h preincubation, number of replicates with >50% inhibition in the male readout
[12] = PfDGFA at 2µM, 24h preincubation with gametocytes prior to induction of gametogenesis

Row | Structure (SMILES) | Average inhibition female (%) [1, 6] [%] | % inhibition female (individual replicates) R1 [1, 6] [%] | % inhibition female (individual replicates) R3 [1, 6] [%] | % inhibition female (individual replicates) R4 [1, 6] [%] | HitlevelF [1, 7] | Average inhibition male (%) [2, 6] [%] | % inhibition male (individual replicates) R1 [2, 6] [%] | % inhibition male (individual replicates) R3 [2, 6] [%] | % inhibition male (individual replicates) R4 [2, 6] [%] | HitlevelM [2, 8] | Activity [2, 9] | HitlevelF [1, 10] | HitlevelM [2, 11] | also measured
1 | CN1CCCC1CCNCc1cccc(-c2cnc(N(C)C3CCCCC3)nc2)c1 (centres unmarked) [TCMDC-133141] | – | – | – | – | – | – | – | – | – | – | – | – | – | Average inhibition female (%) [1, 3]: 34.0%; % inhibition female (individual replicates) R1 [1, 3]: 30.5%; % inhibition female (individual replicates) R3 [1, 3]: 11.1%; % inhibition female (individual replicates) R4 [1, 3]: 42.8%; HitlevelF [1, 4]: 1; Average inhibition male (%) [2, 3]: 74.0%; % inhibition male (individual replicates) R1 [2, 3]: 71.5%; % inhibition male (individual replicates) R3 [2, 3]: 68.9%; % inhibition male (individual replicates) R4 [2, 3]: 81.6%; HitlevelM [2, 5]: 4
2 | CCCN(CC1CC1)c1ncc(-c2cccc(CNCCC3CCCN3C)c2)cn1 (centres unmarked) [TCMDC-133142] | 16.5 | 26.9 | 12.7 | -0.1 | 0 | 41.7 | 43.1 | 28.4 | 53.6 | 1 | 0 | – | – | –
3 | CN(CCc1ccccc1)c1ncc(-c2cccc(CNCCC3CCCN3C)c2)cn1 (centres unmarked) [TCMDC-133143] | 35.0 | 22.5 | 13.4 | 55.4 | – | 57.0 | 66.7 | 31.4 | 52.9 | – | – | 1 | 3 | –
4 | CN1CCCC1CCNCc1cccc(-c2cnc(N3CCCC(C)(C)C3)nc2)c1 (centres unmarked) [TCMDC-133144] | 21.7 | 23.0 | 21.4 | 13.1 | – | 57.1 | 64.8 | 37.3 | 70.2 | – | – | 0 | 3 | –
5 | O=C(Nc1ccsc1)Nc1cccc(-c2ccc(-c3nc4cc(C(F)(F)F)ccc4[nH]3)cc2)c1 [TCMDC-133210] | – | – | – | – | – | – | – | – | – | – | – | – | – | % inhibition female (individual replicates) R1 [1, 12]: 5.3%; % inhibition female (individual replicates) R3 [1, 12]: -25.6%; % inhibition female (individual replicates) R4 [1, 12]: -2.5%; Average inhibition female (%) [1, 9]: -7.9%; % inhibition male (individual replicates) R1 [2, 12]: -6.9%; % inhibition male (individual replicates) R3 [2, 12]: -21.6%; % inhibition male (individual replicates) R4 [2, 12]: 0.9%; Average inhibition male (%) [2, 9]: -14.6%
6 | CCCCCN1CCCC1CNS(=O)(=O)c1cccc(C(=O)Nc2cccc(C#N)c2)c1.O=C(O)C(F)(F)F (centres unmarked) [TCMDC-133690] | – | – | – | – | – | – | – | – | – | – | – | – | – | % inhibition female (individual replicates) R1 [1, 12]: 2.9%; % inhibition female (individual replicates) R3 [1, 12]: -5.0%; % inhibition female (individual replicates) R4 [1, 12]: 6.8%; Average inhibition female (%) [1, 9]: -0.08%; % inhibition male (individual replicates) R1 [2, 12]: -0.3%; % inhibition male (individual replicates) R4 [2, 12]: 15.0%; Average inhibition male (%) [2, 9]: 7.9%
7 | Cl.NCc1ccc(-c2ccc3c(N)nccc3c2)cc1 [TCMDC-133718] | 21.1 | 11.2 | 8.8 | 10.1 | – | 18.4 | -0.6 | -25.8 | 49.6 | – | – | 1 | 1 | –
8 | Cc1cccc(-c2cccc(CNc3nc(NCCc4ccc(O)cc4)nc(N4CCNCC4)n3)c2)c1.O=C(O)C(F)(F)F [TCMDC-133810] | 7.6 | 16.4 | -13.0 | 18.6 | 0 | -4.6 | -4.0 | -16.3 | 16.2 | 0 | 0 | – | – | –
9 | CN1CCC(N2CCN(Cc3cccc(-c4ccc(-c5nc6cc(F)ccc6[nH]5)cc4)c3)CC2)CC1.O=C(O)C(F)(F)F [TCMDC-133858] | 6.0 | 1.0 | -3.8 | 20.5 | 0 | 26.9 | 35.0 | -5.5 | 46.2 | 0 | 0 | – | – | –
10 | Cc1cccc2nc(-c3ccc(-c4ccc(CN5CCC(N)C5)cc4)s3)[nH]c12.O=C(O)C(F)(F)F (centres unmarked) [TCMDC-133862] | 4.0 | 5.8 | 5.7 | 2.9 | 0 | -1.0 | -13.8 | – | 7.3 | 0 | 0 | – | – | –
11 | Cc1cccc2nc(-c3ccc(-c4ccc(CN5CCN(C6CCN(C)CC6)CC5)cc4)s3)[nH]c12.O=C(O)C(F)(F)F [TCMDC-133866] | 32.5 | 26.9 | 41.8 | 27.5 | – | 12.4 | 12.8 | 24.6 | 21.2 | – | – | 0 | 0 | –
12 | NC1CCN(Cc2ccc(-c3ccc(-c4nc5ccccc5[nH]4)cc3)cc2)C1.O=C(O)C(F)(F)F (centres unmarked) [TCMDC-133868] | 15.3 | 0.6 | -10.8 | 34.5 | – | 53.2 | 65.7 | 18.3 | 71.6 | – | – | 0 | 3 | –
13 | NC1CCN(Cc2ccc(-c3ccc(-c4nc5cc(F)ccc5[nH]4)cc3)cc2)C1.O=C(O)C(F)(F)F (centres unmarked) [TCMDC-133872] | 9.7 | 21.7 | 5.5 | 3.9 | 0 | 30.9 | 32.1 | 18.9 | 53.6 | 1 | 0 | – | – | –
14 | O=C(O)C(F)(F)F.c1cc(-c2ccc(CN3CCCCC3)cc2)cc(-c2nc3ccccc3[nH]2)c1 [TCMDC-133917] | 7.0 | 8.8 | -3.2 | 28.3 | 0 | 9.6 | 7.6 | 11.1 | 9.5 | 0 | 0 | – | – | –
15 | Cc1cccc2nc(-c3ccc(-c4cccc(CN5CCC(CCN6CCCCC6)CC5)c4)s3)[nH]c12.O=C(O)C(F)(F)F [TCMDC-133923] | 32.1 | 30.9 | 27.4 | 27.6 | – | 52.7 | 48.5 | 59.9 | 89.6 | – | – | 0 | 2 | –
16 | Cc1cccc2nc(-c3ccc(-c4ccc(CN5CCC(CCN6CCCCC6)CC5)cc4)cc3)[nH]c12.O=C(O)C(F)(F)F [TCMDC-133929] | – | – | – | – | – | – | – | – | – | – | – | – | – | Average inhibition female (%) [1, 3]: 48.2%; % inhibition female (individual replicates) R1 [1, 3]: 36.0%; % inhibition female (individual replicates) R3 [1, 3]: 37.3%; % inhibition female (individual replicates) R4 [1, 3]: 59.9%; HitlevelF [1, 4]: 2; Average inhibition male (%) [2, 3]: 89.3%; % inhibition male (individual replicates) R1 [2, 3]: 91.7%; % inhibition male (individual replicates) R3 [2, 3]: 68.3%; % inhibition male (individual replicates) R4 [2, 3]: 101.6%; HitlevelM [2, 5]: 4
17 | FC(F)(F)c1ccc2[nH]c(-c3ccc(-c4cccc(CN5CCC(CCN6CCCCC6)CC5)c4)cc3)nc2c1.O=C(O)C(F)(F)F [TCMDC-133941] | – | – | – | – | – | – | – | – | – | – | – | – | – | Average inhibition female (%) [1, 3]: 50.7%; % inhibition female (individual replicates) R1 [1, 3]: 37.2%; % inhibition female (individual replicates) R3 [1, 3]: 33.9%; % inhibition female (individual replicates) R4 [1, 3]: 67.8%; HitlevelF [1, 4]: 2; Average inhibition male (%) [2, 3]: 80.4%; % inhibition male (individual replicates) R1 [2, 3]: 88.3%; % inhibition male (individual replicates) R3 [2, 3]: 55.8%; % inhibition male (individual replicates) R4 [2, 3]: 84.9%; HitlevelM [2, 5]: 4
